In the OligoGym collection one finds target mRNA knockdown data, which are given here for 19 substances.

HELM strings list units from the 5' end as sugar, base in round brackets, then linkage (d deoxyribose, r ribose, m 2'-O-methyl, p phosphodiester). Strings are as the collection lists them, not checked against the first reports. ss, as = sense and antisense strand; [lna] = locked nucleic acid (LNA); [una] = unlocked nucleic acid; [s4r] = 4'-thioribose; [fl2r] = 2'-fluoro
Also: test system not given here.

The conditions of this data set: siRNA.
In turn, “RNA1{r(G)p.r(A)p.r(A)p.r(G)p.r(A)p.r(G)p.r(C)p.r(C)p.m(U)p.r(A)p.m(C)p.r(A)p.r(C)p.r(A)p.r(A)p.r(C)p.r(C)p.r(C)p.r(U)p.r(T)p.r(T)}|RNA2{r(A)p.r(G)p.r(G)p.r(G)p.r(U)p.r(U)p.r(G)p.m(U)p.r(G)p.m(U)p.r(A)p.r(G)p.r(G)p.r(C)p.r(U)p.r(C)p.r(U)p.r(U)p.r(C)p.r(T)p.r(T)}$$$RNA1{StrandType:ss}|RNA2{StrandType:as}$” displayed a target mRNA knockdown of 76%.

“RNA1{r(C)p.r(U)p.r(U)p.r(A)p.r(C)p.r(G)p.r(C)p.r(U)p.r(G)p.r(A)p.r(G)p.r(U)p.r(A)p.r(C)p.r(U)p.r(U)p.r(C)p.r(G)p.r(A)p.r(T)p.r(T)}|RNA2{r(U)p.r(C)p.r(G)p.r(A)p.r(A)p.r(G)p.[lna](U)p.r(A)p.r(C)p.r(U)p.r(C)p.r(A)p.r(G)p.r(C)p.r(G)p.r(U)p.r(A)p.r(A)p.r(G)p.r(T)p.r(T)}$$$RNA1{StrandType:ss}|RNA2{StrandType:as}$” had a target mRNA knockdown of 81%.

Regarding “RNA1{r(G)p.r(C)p.r(U)p.r(U)p.m(U)p.m(A)p.r(A)p.r(G)p.r(G)p.r(A)p.r(A)p.r(C)p.m(U)p.r(G)p.r(G)p.r(A)p.r(A)p.r(G)p.r(G)p.r(T)p.r(T)}|RNA2{r(C)p.r(C)p.r(U)p.r(U)p.r(C)p.m(C)p.r(A)p.r(G)p.r(U)p.r(U)p.r(C)p.r(C)p.r(U)p.m(U)p.m(A)p.r(A)p.r(A)p.r(G)p.r(C)p.r(T)p.r(T)}$$$RNA1{StrandType:ss}|RNA2{StrandType:as}$”, the target mRNA knockdown was 72%.

Substance “RNA1{[fl2r](U)p.r(A)p.r(A)p.r(C)p.r(C)p.r(C)p.r(C)p.r(A)p.r(A)p.r(G)p.r(A)p.r(A)p.r(C)p.r(G)p.r(G)p.r(G)p.r(C)p.r(U)p.r(U)p.r(T)p.r(T)}|RNA2{r(A)p.r(A)p.r(G)p.r(C)p.r(C)p.r(C)p.r(G)p.r(U)p.r(U)p.r(C)p.r(U)p.r(U)p.r(G)p.r(G)p.r(G)p.r(G)p.r(U)p.[fl2r](U)p.r(A)p.r(T)p.r(T)}$$$RNA1{StrandType:ss}|RNA2{StrandType:as}$” showed a target mRNA knockdown of 73%.

Substance “RNA1{m(A)p.m(A)p.m(G)p.m(G)p.m(A)p.m(G)p.m(A)p.m(U)p.m(C)p.m(A)p.m(A)p.m(C)p.m(A)p.m(U)p.m(U)p.m(U)p.m(U)p.m(C)p.m(A)p.r(T)p.r(T)}|RNA2{r(U)p.r(G)p.r(A)p.r(A)p.r(A)p.r(A)p.r(U)p.r(G)p.r(U)p.r(U)p.r(G)p.r(A)p.r(U)p.r(C)p.r(U)p.r(C)p.r(C)p.m(U)p.m(U)p.r(T)p.r(T)}$$$RNA1{StrandType:ss}|RNA2{StrandType:as}$” showed a target mRNA knockdown of 77%.

“RNA1{[fl2r](G)p.r(G)p.[fl2r](A)p.r(A)p.[fl2r](G)p.r(A)p.[fl2r](A)p.r(G)p.[fl2r](A)p.r(U)p.[fl2r](A)p.r(G)p.[fl2r](A)p.r(G)p.[fl2r](C)p.r(A)p.[fl2r](U)p.r(C)p.[fl2r](C)p.r(T)p.r(T)}|RNA2{r(G)p.r(G)p.r(A)p.[fl2r](U)p.r(G)p.r(C)p.r(U)p.r(C)p.[fl2r](U)p.r(A)p.r(U)p.r(C)p.r(U)p.r(U)p.r(C)p.r(U)p.r(U)p.r(C)p.r(C)p.r(T)p.r(T)}$$$RNA1{StrandType:ss}|RNA2{StrandType:as}$” gave a target mRNA knockdown of 13%.

With “RNA1{r(G)p.r(C)p.r(U)p.r(U)p.r(C)p.r(G)p.r(G)p.r(A)p.r(A)p.r(A)p.r(C)p.[fl2r](U)p.[fl2r](G)p.r(G)p.r(A)p.[fl2r](C)p.r(A)p.r(U)p.r(C)p.r(T)p.r(T)}|RNA2{r(G)p.r(A)p.[fl2r](U)p.r(G)p.r(U)p.r(C)p.[fl2r](C)p.[fl2r](A)p.r(G)p.r(U)p.r(U)p.r(U)p.r(C)p.r(C)p.r(G)p.r(A)p.r(A)p.r(G)p.r(C)p.r(T)p.r(T)}$$$RNA1{StrandType:ss}|RNA2{StrandType:as}$”, the target mRNA knockdown was determined as 87%.

Regarding “RNA1{r(A)p.r(A)p.r(C)p.r(C)p.r(C)p.r(A)p.r(C)p.r(C)p.r(A)p.r(C)p.r(A)p.r(G)p.r(C)p.r(U)p.r(A)p.r(G)p.r(A)p.r(A)p.r(C)p.r(U)p.r(U)}|RNA2{r(A)p.r(A)p.m(G)p.m(U)p.m(U)p.r(C)p.m(U)p.r(A)p.m(G)p.r(C)p.m(U)p.m(G)p.m(U)p.m(G)p.m(G)p.m(U)p.m(G)p.m(G)p.r(G)p.m(U)p.m(U)}$$$RNA1{StrandType:ss}|RNA2{StrandType:as}$”, the target mRNA knockdown worked out at 15%.

The substance “RNA1{r(G)p.r(G)p.r(A)p.r(C)p.r(A)p.r(U)p.r(U)p.r(C)p.r(A)p.r(G)p.r(A)p.r(A)p.r(C)p.r(A)p.r(A)p.r(G)p.r(A)p.r(A)p.r(A)p.[una](U)p.[una](U)}|RNA2{r(U)p.r(U)p.r(U)p.r(C)p.r(U)p.r(U)p.r(G)p.r(U)p.r(U)p.[una](C)p.r(U)p.r(G)p.r(A)p.r(A)p.r(U)p.r(G)p.r(U)p.r(C)p.r(C)p.[una](U)p.[una](U)}$$$RNA1{StrandType:ss}|RNA2{StrandType:as}$” showed a target mRNA knockdown of 17%.

“RNA1{r(A)p.r(A)p.m(C)p.r(A)p.r(G)p.r(U)p.r(C)p.r(C)p.r(U)p.m(U)p.r(A)p.r(G)p.r(C)p.m(U)p.r(A)p.r(C)p.r(G)p.r(C)p.m(U)p.r(T)p.r(T)}|RNA2{r(A)p.r(G)p.r(C)p.r(G)p.m(U)p.r(A)p.r(G)p.r(C)p.m(U)p.r(A)p.r(A)p.r(G)p.r(G)p.r(A)p.r(C)p.m(U)p.r(G)p.r(U)p.r(U)p.r(T)p.r(T)}$$$RNA1{StrandType:ss}|RNA2{StrandType:as}$” had a target mRNA knockdown of 85%.

For the substance “RNA1{r(G)p.m(C)p.r(A)p.r(G)p.r(C)p.r(A)p.r(C)p.r(G)p.r(A)p.r(C)p.r(U)p.r(U)p.r(C)p.r(U)p.r(U)p.r(C)p.r(A)p.r(A)p.r(G)p.r(U)p.r(U)}|RNA2{r(C)p.m(U)p.r(U)p.r(G)p.r(A)p.r(A)p.r(G)p.r(A)p.r(A)p.r(G)p.r(U)p.r(C)p.r(G)p.r(U)p.r(G)p.r(C)p.r(U)p.r(G)p.r(C)p.r(U)p.r(U)}$$$RNA1{StrandType:ss}|RNA2{StrandType:as}$”, the target mRNA knockdown came to 62.7%.

Consider “RNA1{r(C)p.r(G)p.r(A)p.r(C)p.[fl2r](G)p.r(A)p.r(U)p.r(U)p.r(C)p.r(U)p.r(U)p.r(C)p.[fl2r](U)p.r(A)p.r(C)p.r(U)p.r(C)p.r(A)p.r(A)p.r(T)p.r(T)}|RNA2{r(U)p.[fl2r](U)p.r(G)p.r(A)p.r(G)p.[fl2r](U)p.r(A)p.r(G)p.r(A)p.r(A)p.r(G)p.r(A)p.r(A)p.r(U)p.r(C)p.r(G)p.r(U)p.r(C)p.r(G)p.r(T)p.r(T)}$$$RNA1{StrandType:ss}|RNA2{StrandType:as}$”, for which the target mRNA knockdown was determined as 62%.

In turn, “RNA1{[s4r](A)p.[s4r](A)p.r(A)p.r(C)p.r(A)p.r(U)p.r(G)p.r(C)p.r(A)p.r(G)p.r(A)p.r(A)p.r(A)p.r(A)p.r(U)p.r(G)p.r(C)p.r(U)p.r(G)p.r(T)p.r(T)}|RNA2{r(C)p.r(A)p.r(G)p.r(C)p.r(A)p.r(U)p.r(U)p.r(U)p.r(U)p.r(C)p.r(U)p.r(G)p.r(C)p.r(A)p.r(U)p.[s4r](G)p.[s4r](U)p.[s4r](U)p.[s4r](U)p.r(T)p.r(T)}$$$RNA1{StrandType:ss}|RNA2{StrandType:as}$” came in with a target mRNA knockdown of 70.9%.

As to “RNA1{m(G)p.r(A)p.m(A)p.r(G)p.m(A)p.r(G)p.m(U)p.r(U)p.m(A)p.r(A)p.m(C)p.r(C)p.m(C)p.r(G)p.m(G)p.r(G)p.m(A)p.r(C)p.r(U)p.r(T)p.r(T)}|RNA2{r(A)p.r(G)p.r(U)p.r(C)p.r(C)p.r(C)p.r(G)p.r(G)p.r(G)p.r(U)p.r(U)p.r(A)p.r(A)p.r(C)p.r(U)p.r(C)p.r(U)p.r(U)p.r(C)p.r(T)p.r(T)}$$$RNA1{StrandType:ss}|RNA2{StrandType:as}$”, the target mRNA knockdown turned out to be 17%.

Regarding “RNA1{r(G)p.r(C)p.r(U)p.r(U)p.r(U)p.m(A)p.r(A)p.r(G)p.r(G)p.r(A)p.r(A)p.r(C)p.m(U)p.r(G)p.r(G)p.r(A)p.r(A)p.r(G)p.r(G)p.r(T)p.r(T)}|RNA2{r(C)p.r(C)p.r(U)p.r(U)p.r(C)p.m(C)p.r(A)p.r(G)p.r(U)p.r(U)p.r(C)p.r(C)p.r(U)p.r(U)p.r(A)p.r(A)p.r(A)p.r(G)p.r(C)p.r(T)p.r(T)}$$$RNA1{StrandType:ss}|RNA2{StrandType:as}$”, the target mRNA knockdown worked out at 74%.

The substance “RNA1{r(C)p.r(G)p.r(U)p.r(A)p.r(C)p.r(G)p.r(C)p.r(G)p.r(G)p.r(A)p.r(A)p.r(U)p.r(A)p.r(C)p.r(U)p.r(U)p.r(C)p.r(G)p.r(A)p.r(T)p.r(T)}|RNA2{[s4r](U)p.[s4r](C)p.r(G)p.r(A)p.r(A)p.r(G)p.[s4r](U)p.r(A)p.[s4r](U)p.[s4r](U)p.[s4r](C)p.[s4r](C)p.r(G)p.[s4r](C)p.r(G)p.[s4r](U)p.r(A)p.[s4r](C)p.r(G)p.r(T)p.r(T)}$$$RNA1{StrandType:ss}|RNA2{StrandType:as}$” returned a target mRNA knockdown of 27.5%.

For the substance “RNA1{r(C)p.r(U)p.r(U)p.r(A)p.r(C)p.r(G)p.r(C)p.r(U)p.r(G)p.r(A)p.r(G)p.r(U)p.r(A)p.r(C)p.r(U)p.r(U)p.r(C)p.r(G)p.r(A)p.r(T)p.r(T)}|RNA2{r(T)p.r(C)p.r(G)p.r(A)p.r(A)p.r(G)p.r(U)p.r(A)p.r(C)p.r(U)p.r(C)p.r(A)p.r(G)p.r(C)p.r(G)p.r(U)p.r(A)p.r(A)p.[lna](G)p.[lna](T)p.[lna](T)}$$$RNA1{StrandType:ss}|RNA2{StrandType:as}$”, the target mRNA knockdown worked out at 92%.

Substance “RNA1{r(A)p.r(U)p.r(C)p.r(G)p.r(C)p.[fl2r](U)p.r(G)p.r(C)p.[fl2r](U)p.r(C)p.r(C)p.[fl2r](U)p.r(C)p.r(C)p.r(U)p.r(C)p.r(C)p.r(U)p.r(C)p.r(T)p.r(T)}|RNA2{r(G)p.r(A)p.r(G)p.r(G)p.r(A)p.r(G)p.r(G)p.r(A)p.r(G)p.r(G)p.r(A)p.r(G)p.[fl2r](C)p.r(A)p.r(G)p.r(C)p.r(G)p.r(A)p.r(U)p.r(T)p.r(T)}$$$RNA1{StrandType:ss}|RNA2{StrandType:as}$” yielded a target mRNA knockdown of 69%.

Substance “RNA1{d(G)p.d(C)p.d(A)p.d(G)p.d(C)p.d(A)p.d(C)p.d(G)p.d(A)p.d(C)p.d(U)p.d(U)p.d(C)p.d(U)p.d(U)p.d(C)p.d(A)p.d(A)p.d(G)p.r(T)p.r(T)}|RNA2{d(C)p.d(U)p.d(U)p.d(G)p.d(A)p.d(A)p.d(G)p.d(A)p.d(A)p.d(G)p.d(U)p.d(C)p.d(G)p.d(U)p.d(G)p.d(C)p.d(U)p.d(G)p.d(C)p.r(T)p.r(T)}$$$RNA1{StrandType:ss}|RNA2{StrandType:as}$” had a target mRNA knockdown of 0%.
